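Grown in 96-well plates, cells were treated for 48 hours with each compound at five concentrations. Insufficient inhibition: endpoint recorded as highest concentration tested. GI50 is the concentration that inhibits growth by half.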 Calls of active or inactive are those of the source. Rule as the data show it: active = GI50 up to about 1.1 µM and inactive = higher.
Key:
Test in all cases: inhibition of tumour cell growth, NCI panel, 48 h
CAKI-1 = system: CAKI-1
HOP-92 = system: HOP-92
SK-OV-3 = system: SK-OV-3
SF-539 = system: SF-539
MDA-N = system: MDA-N
M14 = system: M14
NCI-H23 = system: NCI-H23
HL-60 = system: HL-60
UO-31 = system: UO-31
HOP-62 = system: HOP-62
UACC-257 = system: UACC-257
SK-MEL-5 = system: SK-MEL-5
RXF 393 = system: RXF 393
HCT-15 = system: HCT-15
K562 = system: K562
SK-MEL-28 = system: SK-MEL-28
ACHN = system: ACHN
SW-620 = system: SW-620
DU-145 = system: DU-145
EKVX = system: EKVX
SR = system: SR
UACC-62 = system: UACC-62
MCF7 = system: MCF7
SN12C = system: SN12C
NCI-H522 = system: NCI-H522
NCI/ADR-RES = system: NCI/ADR-RES
PC-3 = system: PC-3
HCC 2998 = system: HCC 2998
MDA-MB-231 = system: MDA-MB-231
SK-MEL-2 = system: SK-MEL-2
T47D = system: T47D
786-0 = system: 786-0
LOX IMVI = system: LOX IMVI
HT-29 = system: HT-29
MDA-MB-435 = system: MDA-MB-435
SNB-75 = system: SNB-75
SF-268 = system: SF-268
COLO 205 = system: COLO 205
SNB-19 = system: SNB-19
HCT-116 = system: HCT-116
TK-10 = system: TK-10
Hs-578T = system: Hs-578T
Malme-3M = system: Malme-3M
A549 = system: A549
OVCAR-4 = system: OVCAR-4
OVCAR-8 = system: OVCAR-8
U-251 = system: U-251
OVCAR-5 = system: OVCAR-5
BT-549 = system: BT-549
MOLT-4 = system: MOLT-4
KM12 = system: KM12
IGROV-1 = system: IGROV-1
NCI-H226 = system: NCI-H226
OVCAR-3 = system: OVCAR-3
CCRF-CEM = system: CCRF-CEM
SF-295 = system: SF-295
RPMI-8226 = system: RPMI-8226
NCI-H460 = system: NCI-H460
A498 = system: A498

`O=C1NC(N2CCCC(CO)C2)=N/C1=C\c1ccc(O)cc1` (stereo not given) was tested, and the GI50 (CAKI-1) was > 100 µM (inactive), the GI50 (HOP-92) was > 100 µM (inactive) and the GI50 (SK-OV-3) was > 100 µM (inactive). The GI50 (SF-539) was > 100 µM (inactive), the GI50 (MDA-N) was > 100 µM (inactive) and the GI50 (M14) was > 100 µM (inactive). The GI50 (NCI-H23) was > 100 µM (inactive), the GI50 (HL-60) was > 100 µM (inactive) and the GI50 (UO-31) was > 100 µM (inactive). For the same compound, the GI50 (HOP-62) was > 100 µM (inactive), the GI50 (UACC-257) was > 100 µM (inactive) and the GI50 (SK-MEL-5) was > 100 µM (inactive). The GI50 (RXF 393) was > 100 µM (inactive), the GI50 (HCT-15) was greater than 100 µM and the GI50 (K562) was > 100 µM (inactive). The GI50 (SK-MEL-28) was > 100 µM (inactive), the GI50 (ACHN) was > 100 µM (inactive) and the GI50 (SW-620) was > 100 µM (inactive). For the same compound, the GI50 (DU-145) was > 100 µM (inactive), the GI50 (EKVX) was > 100 µM (inactive) and the GI50 (SR) was > 100 µM (inactive). For the same compound, the GI50 (UACC-62) was > 100 µM (inactive), the GI50 (MCF7) was > 100 µM (inactive) and the GI50 (SN12C) was > 100 µM (inactive). The GI50 (NCI-H522) was > 100 µM (inactive), the GI50 (NCI/ADR-RES) was > 100 µM (inactive) and the GI50 (PC-3) was > 100 µM (inactive). The GI50 (HCC 2998) was > 100 µM (inactive), the GI50 (MDA-MB-231) was > 100 µM (inactive) and the GI50 (SK-MEL-2) was > 100 µM (inactive). For the same compound, the GI50 (T47D) was 42 µM (inactive), the GI50 (786-0) was > 100 µM (inactive) and the GI50 (LOX IMVI) was > 100 µM (inactive). The GI50 (HT-29) was > 100 µM (inactive), the GI50 (MDA-MB-435) was > 100 µM (inactive) and the GI50 (SNB-75) was > 100 µM (inactive). The GI50 (SF-268) was > 100 µM (inactive), the GI50 (COLO 205) was > 100 µM (inactive) and the GI50 (SNB-19) was > 100 µM (inactive). For the same compound, the GI50 (HCT-116) was > 100 µM (inactive), the GI50 (TK-10) was > 100 µM (inactive) and the GI50 (Hs-578T) was > 100 µM (inactive). For the same compound, the GI50 (Malme-3M) was > 100 µM (inactive), the GI50 (A549) was > 100 µM (inactive) and the GI50 (OVCAR-4) was > 100 µM (inactive). For the same compound, the GI50 (OVCAR-8) was > 100 µM (inactive), the GI50 (U-251) was > 100 µM (inactive) and the GI50 (OVCAR-5) was > 100 µM (inactive). The GI50 (BT-549) was > 100 µM (inactive), the GI50 (MOLT-4) was > 100 µM (inactive) and the GI50 (KM12) was > 100 µM (inactive). For the same compound, the GI50 (IGROV-1) was > 100 µM (inactive), the GI50 (NCI-H226) was > 100 µM (inactive) and the GI50 (OVCAR-3) was > 100 µM (inactive). For the same compound, the GI50 (CCRF-CEM) was > 100 µM (inactive), the GI50 (SF-295) was > 100 µM (inactive) and the GI50 (RPMI-8226) was > 100 µM (inactive).

For `CN(C)c1ccc(/C=C/c2ccnc3ccc4ccccc4c23)cc1`, the GI50 (CAKI-1) was 38.4 µM (inactive), the GI50 (HOP-92) was 73.1 µM (inactive) and the GI50 (SK-OV-3) was 27.9 µM (inactive). For the same compound, the GI50 (SF-539) was 28.4 µM (inactive), the GI50 (MDA-N) was 16.3 µM (inactive) and the GI50 (M14) was 81.3 µM (inactive). The GI50 (NCI-H23) was 52.4 µM (inactive), the GI50 (HL-60) was > 100 µM (inactive) and the GI50 (UO-31) was 45.6 µM (inactive). The GI50 (NCI-H460) was 29.6 µM (inactive), the GI50 (HOP-62) was 33.4 µM (inactive) and the GI50 (UACC-257) was 89.5 µM (inactive). For the same compound, the GI50 (SK-MEL-5) was 71 µM (inactive), the GI50 (RXF 393) was 17.7 µM (inactive) and the GI50 (HCT-15) was 45.9 µM. For the same compound, the GI50 (K562) was 53 µM (inactive), the GI50 (SK-MEL-28) was 38.5 µM (inactive) and the GI50 (ACHN) was 22.8 µM (inactive). For the same compound, the GI50 (SW-620) was 47 µM (inactive), the GI50 (DU-145) was 44.1 µM (inactive) and the GI50 (SR) was 13.2 µM (inactive). For the same compound, the GI50 (UACC-62) was 53.1 µM (inactive), the GI50 (MCF7) was 0.0873 µM (active) and the GI50 (SN12C) was 74.3 µM (inactive). The GI50 (NCI-H522) was 17.3 µM (inactive), the GI50 (NCI/ADR-RES) was 43.3 µM (inactive) and the GI50 (PC-3) was 92.5 µM (inactive). For the same compound, the GI50 (MDA-MB-231) was 34.5 µM (inactive), the GI50 (SK-MEL-2) was 25.6 µM (inactive) and the GI50 (T47D) was 16.7 µM (inactive). For the same compound, the GI50 (786-0) was 39.5 µM (inactive), the GI50 (LOX IMVI) was 43.9 µM (inactive) and the GI50 (HT-29) was 43.5 µM (inactive). The GI50 (MDA-MB-435) was 24.2 µM (inactive), the GI50 (SNB-75) was 26.5 µM (inactive) and the GI50 (SF-268) was 39.7 µM (inactive). For the same compound, the GI50 (COLO 205) was 53.1 µM (inactive), the GI50 (SNB-19) was 33.9 µM (inactive) and the GI50 (HCT-116) was 36.5 µM (inactive). For the same compound, the GI50 (TK-10) was 19.1 µM (inactive), the GI50 (Hs-578T) was 36.6 µM (inactive) and the GI50 (Malme-3M) was 25.3 µM (inactive). For the same compound, the GI50 (A549) was 35.7 µM (inactive), the GI50 (OVCAR-8) was 33.1 µM (inactive) and the GI50 (U-251) was 28.6 µM (inactive). The GI50 (BT-549) was 37.5 µM (inactive), the GI50 (MOLT-4) was > 100 µM (inactive) and the GI50 (KM12) was 33.3 µM (inactive). The GI50 (A498) was 24.8 µM (inactive), the GI50 (IGROV-1) was 12.7 µM (inactive) and the GI50 (OVCAR-3) was 51.9 µM (inactive). For the same compound, the GI50 (CCRF-CEM) was > 100 µM (inactive) and the GI50 (RPMI-8226) was 79.4 µM (inactive).

Reference: ChEMBL document CHEMBL1201862, “PubChem BioAssay data set” (2004)
